In ChEMBL document CHEMBL2074230, “Interaction and transport of thiazide diuretics, loop diuretics, and acetazolamide via rat renal organic anion transporter rOAT1” (J Pharmacol Exp Ther, 2000):

T1: Solute carrier family 22 member 6 (Rattus norvegicus, UniProt O35956)
T1 sequence (O35956 whole entry): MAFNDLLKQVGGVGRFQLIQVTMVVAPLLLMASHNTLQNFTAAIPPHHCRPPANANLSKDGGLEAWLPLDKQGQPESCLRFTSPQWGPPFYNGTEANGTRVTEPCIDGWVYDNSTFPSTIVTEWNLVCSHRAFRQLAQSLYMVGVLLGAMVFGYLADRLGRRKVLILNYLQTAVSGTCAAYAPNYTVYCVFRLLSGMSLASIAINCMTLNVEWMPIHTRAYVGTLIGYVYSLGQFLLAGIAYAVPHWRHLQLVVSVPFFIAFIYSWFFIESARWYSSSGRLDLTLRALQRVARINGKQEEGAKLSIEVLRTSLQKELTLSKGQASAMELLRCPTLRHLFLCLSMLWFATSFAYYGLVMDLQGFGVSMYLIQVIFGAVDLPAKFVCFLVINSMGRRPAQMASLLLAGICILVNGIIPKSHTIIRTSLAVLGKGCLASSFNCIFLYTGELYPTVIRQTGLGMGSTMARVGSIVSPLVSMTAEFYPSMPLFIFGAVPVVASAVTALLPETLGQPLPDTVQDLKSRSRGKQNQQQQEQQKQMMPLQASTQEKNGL


Key:
[1] = molecular target: T1, Solute carrier family 22 member 6; assay: TP_TRANSPORTER: inhibition of PAH uptake in Xenopus laevis oocytes; type: functional, cell-based, Oocyte; conditions: for Activity: xenopus laevis, oocyte
[2] = molecular target: T1, Solute carrier family 22 member 6; assay: TP_TRANSPORTER: uptake in Xenopus laevis oocytes; type: functional, cell-based; conditions: oocyte
[3] = substrate: Nc1ccc(C(=O)NCC(=O)O)cc1; assay: cells, lysate or membranes named

Molecule	Activity [1]	Ki [1] [µM]	other results
CC(=O)Nc1nnc(S(N)(=O)=O)s1 [ACETAZOLAMIDE]		1100	Activity [2]: substrate [+]
CC(=O)/N=c1/sc(S(N)(=O)=O)nn1C [METHAZOLAMIDE]	inhibitor [+]		
CCCCNc1cc(C(=O)O)cc(S(N)(=O)=O)c1Oc1ccccc1 [BUMETANIDE]		5.5	
Solute carrier family 22 member 6 (Rattus norvegicus) (protein) MAFNDLLKQVGGVGRFQLIQVTMVVAPLLLMASHNTLQNFTAAIPPHHCRPPANANLSKDGGLEAWLPLDKQGQPESCLRFTSPQWGPPFYNGTEANGTRVTEPCIDGWVYDNSTFPSTIVTEWNLVCSHRAFRQLAQSLYMVGVLLGAMVFGYLADRLGRRKVLILNYLQTAVSGTCAAYAPNYTVYCVFRLLSGMSLASIAINCMTLNVEWMPIHTRAYVGTLIGYVYSLGQFLLAGIAYAVPHWRHLQLVVSVPFFIAFIYSWFFIESARWYSSSGRLDLTLRALQRVARINGKQEEGAKLSIEVLRTSLQKELTLSKGQASAMELLRCPTLRHLFLCLSMLWFATSFAYYGLVMDLQGFGVSMYLIQVIFGAVDLPAKFVCFLVINSMGRRPAQMASLLLAGICILVNGIIPKSHTIIRTSLAVLGKGCLASSFNCIFLYTGELYPTVIRQTGLGMGSTMARVGSIVSPLVSMTAEFYPSMPLFIFGAVPVVASAVTALLPETLGQPLPDTVQDLKSRSRGKQNQQQQEQQKQMMPLQASTQEKNGL			Km [3]: 31 µM

Continued, in another order:

Activity [1]	Ki [1] [µM]	Molecule	other results
inhibitor [+]		NS(=O)(=O)c1cc2c(cc1Cl)NC(C1CC3C=CC1C3)NS2(=O)=O (stereo unspecified) [CYCLOTHIAZIDE]	
	150	NS(=O)(=O)c1cc2c(cc1Cl)NCNS2(=O)=O [HYDROCHLOROTHIAZIDE]	
inhibitor [+]		CCOc1ccc2nc(S(N)(=O)=O)sc2c1 [ETHOXZOLAMIDE]	
inhibitor [+]		NS(=O)(=O)c1cc2c(cc1Cl)N=CNS2(=O)=O [CHLOROTHIAZIDE]	
	9.5	NS(=O)(=O)c1cc(C(=O)O)c(NCc2ccco2)cc1Cl [FUROSEMIDE]	Activity [2]: substrate [+]
